In ChEMBL document CHEMBL5505956, “Plant-derived strategies to fight against severe acute respiratory syndrome coronavirus 2” (Eur J Med Chem, 2024):
Values after ≈ are worked out from the molar mass of the structure shown.

Experiments:
SARS-CoV-2 [1] = experiment: Antiviral activity against SARS-CoV-2 infected in african green monkey Vero E6 cells assessed as reduction in viral replication; type: functional, organism-based; conditions: Severe acute respiratory syndrome coronavirus 2, Vero C1008
SARS-CoV-2 [2] = experiment: Antiviral activity against SARS-CoV-2 infected in human A549-ACE2 cells assessed as viral growth inhibition; type: functional, organism-based; conditions: Severe acute respiratory syndrome coronavirus 2, A549-ACE2
SARS-CoV-2 [3] = experiment: Antiviral activity against SARS-CoV-2 infected in monkey Vero E6 cells assessed as inhibition of […]; type: functional, organism-based; conditions: Severe acute respiratory syndrome coronavirus 2, Vero C1008
SARS-CoV-2 [4] = experiment: Antiviral activity against SARS-CoV-2 infected in African green monkey Vero E6 cells assessed as reduction in viral replication measured after 3 days by qRT-PCR analysis; type: functional, organism-based; conditions: Severe acute respiratory syndrome coronavirus 2, Vero C1008, 72 h
[5] = target: Replicase polyprotein 1ab (Severe acute respiratory syndrome coronavirus 2, UniProt P0DTD1)
Description: Inhibition of SARS CoV-2 main protease

SARS-CoV-2 [6] = experiment: Antiviral activity against SARS-CoV-2 infected in African green monkey Vero E6 cells assessed as inhibition of viral growth incubated for 24 hrs by qRT-PCR analysis; type: functional, organism-based; conditions: Severe acute respiratory syndrome coronavirus 2, Vero C1008, 24 h
SARS-CoV-2 [7] = experiment: Antiviral activity against SARS-CoV-2 infected in human Calu-3 cells assessed as reduction in viral replication incubated for 48 hrs by RT-PCR; type: functional, organism-based; conditions: Severe acute respiratory syndrome coronavirus 2, Calu-3, 48 h
SARS-CoV-2 [8] = experiment: Antiviral activity against SARS-CoV-2 infected in african green monkey Vero E6 cells assessed as reduction in viral growth measured for 2 days by qRT-PCR; type: functional, organism-based; conditions: Severe acute respiratory syndrome coronavirus 2, Vero C1008, 48 h

## Cc1ccc(C(=O)Nc2ccc(S(=O)(=O)O)c3cc(S(=O)(=O)O)cc(S(=O)(=O)O)c23)cc1NC(=O)c1cccc(NC(=O)Nc2cccc(C(=O)Nc3cc(C(=O)Nc4ccc(S(=O)(=O)O)c5cc(S(=O)(=O)O)cc(S(=O)(=O)O)c45)ccc3C)c2)c1 [SURAMIN]
SARS-CoV-2 [1]
  EC50: 2.93 µM

## CC1(C)[C@@H](O[C@H]2O[C@H](C(=O)O)[C@@H](O)[C@H](O)[C@H]2O[C@@H]2O[C@H](C(=O)O)[C@@H](O)[C@H](O)[C@H]2O)CC[C@]2(C)[C@H]3C(=O)C=C4[C@@H]5C[C@@](C)(C(=O)O)CC[C@]5(C)CC[C@@]4(C)[C@]3(C)CC[C@@H]12 [GLYCYRRHIZIN]
SARS-CoV-2 [2]
  EC50: 0.44 µg/mL (≈ 0.535 µM)

## O=c1c(O)c(-c2cc(O)c(O)c(O)c2)oc2cc(O)cc(O)c12 [MYRICETIN]
SARS-CoV-2 [3]
  EC50: 8 µM

## O=C(O[C@@H]1Cc2c(O)cc(O)cc2O[C@@H]1c1cc(O)c(O)c(O)c1)c1cc(O)c(O)c(O)c1 [EPIGALOCATECHIN GALLATE]
SARS-CoV-2 [4]
  EC50: 10 µM

## O=C(O[C@@H]1O[C@@H]2COC(=O)c3cc(O)c(O)c(O)c3-c3c(cc(O)c(O)c3O)C(=O)O[C@H]([C@H]1O)[C@@H]2O)c1cc(O)c(O)c(O)c1 [CORILAGIN]
SARS-CoV-2 [1]
  EC50: 0.13 µM

## COc1ccc2cc1Oc1ccc(cc1)C[C@H]1c3c(cc4c(c3Oc3cc5c(cc3OC)CCN(C)[C@@H]5C2)OCO4)CCN1C [CEPHARANTHINE]
[5]
  IC50: 0.1 µM

## C[C@@H]1CC[C@H]2[C@@H](C)C(=O)O[C@@H]3O[C@@]4(C)CC[C@@H]1[C@]32OO4 [ARTEMISININ]
SARS-CoV-2 [6]
  EC50: 10.3 µM

## COc1cc(/C=C/C(=O)CC(=O)/C=C/c2ccc(O)c(OC)c2)ccc1O [CURCUMIN]
SARS-CoV-2 [7]
  EC50: 38 µM
SARS-CoV-2 [8]
  EC50: 38 µM
